Measured values reported in PubChem BioAssay AID248 (DTP/NCI, 2004).
Several values for one entry are separate records, joined by “and”; a condition that tells them apart may be missing. Equal values may be shown once. Toxic doses and inconclusive results are not listed. Cut-off read from the data, not from the text of the source: active = T/C of 150% or more; inactive = T/C below 125%.

Tested on: L1210 leukemia ip in BDF1 mice, survival T/C
Assay: NCI In Vivo Anticancer Drug Screen. Data for tumor model L1210 Leukemia (intraperitoneal) in B6D2F1 (BDF1) mice
Details: endpoint: mean survival time, higher = longer survival
Outline: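 Tumor was transplanted into mice, which were then dosed with test compound or vehicle alone. Survival was recorded for each group, and the treated figure was expressed relative to the control figure.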

[1] = dose: 100.0 mg/kg/injection, schedule: Q01DX001 (ip), vehicle: Klucel (hydroxypropylcellulose) (HPC)
[2] = dose: 200.0 mg/kg/injection, schedule: Q01DX001 (ip), vehicle: Klucel (hydroxypropylcellulose) (HPC)
[3] = dose: 400.0 mg/kg/injection, schedule: Q01DX001 (ip), vehicle: Klucel (hydroxypropylcellulose) (HPC)
[4] = dose: 100.0 mg/kg/injection, schedule: Q01DX001 (ip), vehicle: saline
[5] = dose: 200.0 mg/kg/injection, schedule: Q01DX001 (ip), vehicle: saline
[6] = dose: 400.0 mg/kg/injection, schedule: Q01DX001 (ip), vehicle: saline
[7] = dose: 100.0 mg/kg/injection, schedule: Q04DX002 (ip), vehicle: saline
[8] = dose: 200.0 mg/kg/injection, schedule: Q04DX002 (ip), vehicle: saline
[9] = dose: 400.0 mg/kg/injection, schedule: Q04DX002 (ip), vehicle: saline
[10] = dose: 100.0 mg/kg/injection, schedule: Q01DX001 (ip), vehicle: carboxymethylcellulose (CMC)
[11] = dose: 200.0 mg/kg/injection, schedule: Q01DX001 (ip), vehicle: carboxymethylcellulose (CMC)
[12] = dose: 400.0 mg/kg/injection, schedule: Q01DX001 (ip), vehicle: carboxymethylcellulose (CMC)
[13] = dose: 100.0 mg/kg/injection, schedule: Q04DX003 (ip), vehicle: Klucel (hydroxypropylcellulose) (HPC)
[14] = dose: 200.0 mg/kg/injection, schedule: Q04DX003 (ip), vehicle: Klucel (hydroxypropylcellulose) (HPC)
[15] = dose: 400.0 mg/kg/injection, schedule: Q04DX003 (ip), vehicle: Klucel (hydroxypropylcellulose) (HPC)
[16] = dose: 100.0 mg/kg/injection, schedule: Q04DX003 (ip), vehicle: saline with Tween-80
[17] = dose: 200.0 mg/kg/injection, schedule: Q04DX003 (ip), vehicle: saline with Tween-80
[18] = dose: 400.0 mg/kg/injection, schedule: Q04DX003 (ip), vehicle: saline with Tween-80
[19] = dose: 100.0 mg/kg/injection, schedule: Q01DX009 (ip), vehicle: Klucel (hydroxypropylcellulose) (HPC)
[20] = dose: 100.0 mg/kg/injection, schedule: Q04DX002 (ip), vehicle: Klucel (hydroxypropylcellulose) (HPC)
[21] = dose: 200.0 mg/kg/injection, schedule: Q01DX009 (ip), vehicle: Klucel (hydroxypropylcellulose) (HPC)
[22] = dose: 200.0 mg/kg/injection, schedule: Q04DX002 (ip), vehicle: Klucel (hydroxypropylcellulose) (HPC)
[23] = dose: 400.0 mg/kg/injection, schedule: Q01DX009 (ip), vehicle: Klucel (hydroxypropylcellulose) (HPC)
[24] = dose: 50.0 mg/kg/injection, schedule: Q01DX009 (ip), vehicle: saline with Tween-80
[25] = dose: 100.0 mg/kg/injection, schedule: Q01DX009 (ip), vehicle: saline with Tween-80

Measured: T/C

CN(C(=O)C(=O)N(C)S(=O)(=O)c1ccccc1)S(=O)(=O)c1ccccc1
inactive: [1] 101 % of control | [2] 97 % of control | [3] 90 % of control

CC1(C)CNC(=O)O1
inactive: [4] 108 % of control | [5] 111 % of control | [6] 100 % of control

Cc1onc(-c2ccccc2Cl)c1C(=O)NC(N)=S
inactive: dose: 100.0 mg/kg/injection, schedule: Q01DX009 (ip), vehicle: saline 103 % of control | dose: 200.0 mg/kg/injection, schedule: Q01DX009 (ip), vehicle: saline 101 % of control | dose: 400.0 mg/kg/injection, schedule: Q01DX009 (ip), vehicle: saline 104 % of control

CCCCCCCCC(S(=O)(=O)CC)S(=O)(=O)CC
inactive: [4] 97 % of control | [5] 94 % of control | [6] 92 % of control

Cc1cc(/C=N/NC(=O)CCCC(=O)N/N=C/c2cc(C)n(-c3ccccc3)c2C)c(C)n1-c1ccccc1
inactive: dose: 50.0 mg/kg/injection, schedule: Q01DX001 (ip), vehicle: saline 98 % of control | [4] 93 % of control | [5] 95 % of control | [6] 89 % of control

C/C=C/c1ccc(OC)cc1
inactive: [7] 104 % of control | [8] 104 % of control | [9] 97 % of control

Cc1n(CC(C)C)c2c([n+]1CC(=O)c1ccc([N+](=O)[O-])cc1)C(=O)c1ccccc1C2=O
inactive: dose: 5.0 mg/kg/injection, schedule: Q01DX001 (ip), vehicle: carboxymethylcellulose (CMC) 93 % of control | dose: 10.0 mg/kg/injection, schedule: Q01DX001 (ip), vehicle: carboxymethylcellulose (CMC) 86 % of control | dose: 20.0 mg/kg/injection, schedule: Q01DX001 (ip), vehicle: carboxymethylcellulose (CMC) 97 % of control

CC1(C(=O)O)NCCS1 (configuration not stated)
inactive: [10] 95 % of control | [11] 90 % of control | [12] 90 % of control

[N-]=[N+]=C1N=CN=C1c1ncnn1Cc1ccccc1
inactive: dose: 5.0 mg/kg/injection, schedule: Q01DX001 (ip), vehicle: other 105 % of control | dose: 10.0 mg/kg/injection, schedule: Q01DX001 (ip), vehicle: other 97 % of control | dose: 20.0 mg/kg/injection, schedule: Q01DX001 (ip), vehicle: other 94 % of control | dose: 40.0 mg/kg/injection, schedule: Q01DX001 (ip), vehicle: other 94 % of control | dose: 80.0 mg/kg/injection, schedule: Q01DX001 (ip), vehicle: other 101 % of control

O=[N+]([O-])c1ccc2[nH]c(=S)[nH]c2c1
inactive: dose: 100.0 mg/kg/injection, schedule: Q04DX003 (ip), vehicle: saline 98 % of control | dose: 200.0 mg/kg/injection, schedule: Q04DX003 (ip), vehicle: saline 103 % of control | dose: 400.0 mg/kg/injection, schedule: Q04DX003 (ip), vehicle: saline 95 % of control

C=CC[Se]CC=C
inactive: [13] 106 % of control | [14] 121 % of control

CC(=O)NCCCOc1ccc([N+](=O)[O-])cc1
inactive: [13] 101 % of control | [14] 91 % of control | [15] 92 % of control

Cc1cc(Cl)ccc1OCC(=O)Nc1cccc(C(F)(F)F)c1
inactive: [7] 103 % of control | [8] 100 % of control | [9] 92 % of control

NCC1CC2CCC1CC2 (configuration not stated)
inactive: dose: 12.5 mg/kg/injection, schedule: Q01DX009 (ip), vehicle: alcohol 106 % of control | dose: 25.0 mg/kg/injection, schedule: Q01DX009 (ip), vehicle: alcohol 101 % of control | dose: 50.0 mg/kg/injection, schedule: Q01DX009 (ip), vehicle: alcohol 106 % of control

CCCCCCCCCCSCCSCCSCCCCCCCCCC
inactive: [13] 94 % of control

Cc1cnc(Br)c(Br)c1
inactive: [16] 102 % of control | [17] 100 % of control | [18] 102 % of control

O=C(O)c1ccc(CCc2cccnc2)cc1
inactive: dose: 100.0 mg/kg/injection, schedule: Q01DX001 (ip), vehicle: saline with Tween-80 96 % of control | dose: 200.0 mg/kg/injection, schedule: Q01DX001 (ip), vehicle: saline with Tween-80 98 % of control

CC(=O)OC1C(CO)OC2C1Oc1nc(=N)c(F)cn12 (configuration not stated)
inactive: [7] 92 % of control

CCOC(=O)NP(=O)(NC1CCCCC1)NC1CCCCC1
inactive: dose: 50.0 mg/kg/injection, schedule: Q01DX001 (ip), vehicle: alcohol 92 % of control | dose: 100.0 mg/kg/injection, schedule: Q01DX001 (ip), vehicle: alcohol 96 % of control | dose: 200.0 mg/kg/injection, schedule: Q01DX001 (ip), vehicle: alcohol 90 % of control

O=C(Cc1ccccc1)c1ccc(N2CCOCC2)cc1
inactive: [4] 89 % of control | [6] 86 % of control

CC(C)C1(Cc2ccccc2)C(=O)NC(=S)NC1=O
inactive: dose: 75.0 mg/kg/injection, schedule: Q01DX001 (ip), vehicle: saline 95 % of control | dose: 150.0 mg/kg/injection, schedule: Q01DX001 (ip), vehicle: saline 93 % of control

CC(O)(CCc1ccccc1)CC(O)(C(F)(F)F)C(F)(F)F (configuration not stated)
inactive: [16] 101 % of control | [17] 94 % of control | [18] 95 % of control

COc1ccc(C(=O)CC(=O)c2ccc(OC)cc2)cc1
inactive: dose: 50.0 mg/kg/injection, schedule: Q01DX001 (ip), vehicle: carboxymethylcellulose (CMC) 92 % of control | [10] 92 % of control | [11] 108 % of control | [12] 94 % of control

C=CCc1ccc(OC(=O)NC(C)C)c(OC)c1
inactive: [1] 89 % of control | [19] 97 % of control and 88 % of control | [20] 98 % of control and 100 % of control | [13] 93 % of control | [2] 101 % of control | [21] 111 % of control and 91 % of control | [22] 98 % of control and 112 % of control | [14] 97 % of control | [3] 100 % of control | [23] 88 % of control | dose: 400.0 mg/kg/injection, schedule: Q04DX002 (ip), vehicle: Klucel (hydroxypropylcellulose) (HPC) 112 % of control and 119 % of control | [15] 101 % of control

COc1cc2c(cc1[N+](=O)[O-])C(=O)CCCC2
inactive: [24] 88 % of control | [25] 92 % of control

O=CC(CO)CC(C=O)n1cnc2c(=O)[nH]cnc21 (configuration not stated)
inactive: [4] 114 % of control

Cc1ccc(C(=O)Nc2ccc([N+](=O)[O-])cc2)cc1
inactive: [13] 88 % of control | [14] 100 % of control | [15] 98 % of control

CC(C)Nc1ccc(O)cc1
inactive: [20] 106 % of control | [22] 95 % of control

COc1ccc(CCNC(=O)/C=C\C(=O)O)cc1OC
inactive: [16] 100 % of control | [17] 98 % of control | [18] 96 % of control

NC(=S)Nc1ccccn1
inactive: dose: 25.0 mg/kg/injection, schedule: Q01DX009 (ip), vehicle: saline with Tween-80 103 % of control | [24] 90 % of control | [25] 101 % of control | [16] 98 % of control

Nc1nc(N)nc(SCCO)n1
inactive: [19] 99 % of control | [21] 110 % of control | [23] 93 % of control

O=C(Nc1nc2ccccc2[nH]1)C(F)(F)F
inactive: [4] 97 % of control | [5] 100 % of control | [6] 97 % of control

CCCCC#CC(=O)OCCC(C)C
inactive: [16] 94 % of control | [17] 90 % of control | [18] 94 % of control

O=C(NNc1ccccc1)Nc1ccccc1
inactive: [19] 107 % of control
